Experimental data: PubChem BioAssay (NCI)
Several values for one entry are separate records, joined by “and”; a condition that tells them apart may be missing. Equal entries are not always repeated.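 Cultured in 96-well plates, cells were exposed to test compound for 48 hours across five concentrations. The concentration for 50% growth inhibition is given as GI50. Definition used: TGI = concentration required for complete inhibition of growth.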

Experiments:
Test in all cases: NCI anticancer screen, dose series, 48 h
[1] = test system: M14 melanoma
[2] = test system: A498 renal
[3] = test system: HCT-116 colon
[4] = test system: NCI-H23 lung
[5] = test system: SK-MEL-28 melanoma
[6] = test system: UACC-257 melanoma
[7] = test system: MALME-3M melanoma
[8] = test system: MDA-MB-231 breast

Cc1cccc2c1NC(=O)C2(c1ccc(O)cc1)c1ccc(O)cc1
GI50 [1]: 15.5 µM | TGI [1]: 41 µM | GI50 [2]: 0.559 µM | TGI [2]: 25.1 µM | GI50 [3]: 11.3 µM | TGI [3]: 25.5 µM | GI50 [4]: 0.0459 µM | TGI [4]: 31.8 µM | GI50 [5]: 16.4 µM | TGI [5]: 46.5 µM | GI50 [6]: 18.4 µM | TGI [6]: 49.2 µM | GI50 [7]: 17.8 µM | TGI [7]: 55.5 µM | GI50 [8]: 13.3 µM | TGI [8]: 33.3 µM

COc1cccc2cc(-c3nc(C4CCC(C(=O)O)CC4)n4ncnc(N)c34)[nH]c12 (centres undefined)
GI50 [1]: 0.219 µM and 0.36 µM | TGI [1]: 3.76 µM and > 7.22 µM | GI50 [2]: 0.0677 µM and 0.0601 µM | TGI [2]: 0.407 µM and 0.365 µM | GI50 [3]: 0.824 µM and 1.08 µM | TGI [3]: > 100 µM | GI50 [4]: 0.634 µM and 0.734 µM | TGI [4]: 18.4 µM and > 10 µM | GI50 [5]: 0.175 µM and 0.169 µM | TGI [5]: 1.81 µM and 1.4 µM | GI50 [6]: 0.198 µM and 0.378 µM | TGI [6]: 2.1 µM and 4.19 µM | GI50 [7]: 0.0296 µM and 0.0752 µM | TGI [7]: 0.354 µM and 0.675 µM | GI50 [8]: 0.39 µM and 0.348 µM | TGI [8]: 23.5 µM and > 10 µM

Nc1ncnc2c1c(C(=O)NO)cn2C1OC(CO)C(O)C1O (centres undefined)
GI50 [1]: 0.285 µM | TGI [1]: 1.53 µM | GI50 [2]: 0.915 µM | TGI [2]: 6.9 µM | GI50 [3]: 0.175 µM | TGI [3]: > 23.8 µM | GI50 [4]: 0.329 µM | TGI [4]: 2.89 µM | GI50 [5]: 0.479 µM | TGI [5]: 3.63 µM | GI50 [6]: 0.522 µM | TGI [6]: 3.52 µM | GI50 [7]: 0.388 µM | TGI [7]: 3.11 µM | GI50 [8]: 0.464 µM | TGI [8]: 5.32 µM

C(=C\c1nc2ccccc2s1)/c1ccc(N2CCOCC2)s1
GI50 [1]: > 100 µM | TGI [1]: > 100 µM | GI50 [2]: > 100 µM | TGI [2]: > 100 µM | GI50 [3]: 59.9 µM | TGI [3]: > 100 µM | GI50 [4]: 80.9 µM | TGI [4]: > 100 µM | GI50 [5]: > 100 µM | TGI [5]: > 100 µM | GI50 [6]: 51.3 µM | TGI [6]: > 100 µM | GI50 [7]: 72 µM | TGI [7]: > 100 µM | GI50 [8]: > 100 µM | TGI [8]: > 100 µM

CC(=O)Nc1ccc(S(=O)(=O)c2ccc(NC(C)=O)cc2)cc1
GI50 [1]: > 100 µM | TGI [1]: > 100 µM | GI50 [2]: 81.4 µM | TGI [2]: > 100 µM | GI50 [3]: > 100 µM | TGI [3]: > 100 µM | GI50 [4]: > 100 µM | TGI [4]: > 100 µM | GI50 [5]: > 100 µM | TGI [5]: > 100 µM | GI50 [6]: > 100 µM | TGI [6]: > 100 µM | GI50 [7]: 34.5 µM | TGI [7]: > 100 µM | GI50 [8]: > 100 µM | TGI [8]: > 100 µM

CS(=O)(=O)N(CC(=O)O)Cc1ccccc1
TGI [1]: > 100 µM | TGI [2]: > 100 µM | TGI [3]: > 100 µM | TGI [4]: > 100 µM | TGI [5]: > 100 µM | TGI [6]: > 100 µM | TGI [7]: > 100 µM | TGI [8]: > 100 µM

O=C(O)CP(=O)(c1ccccc1)c1ccccc1.O=C(O)CP(=O)(c1ccccc1)c1ccccc1.[Cd]
GI50 [1]: 17.3 µM | TGI [1]: 53.8 µM | GI50 [2]: 19.9 µM | TGI [2]: 39.8 µM | GI50 [3]: 20 µM | TGI [3]: 47.3 µM | GI50 [4]: 20.2 µM | TGI [4]: 41.9 µM | GI50 [5]: 17.9 µM | TGI [5]: 41.8 µM | GI50 [6]: 15.4 µM | TGI [6]: 31.4 µM | GI50 [7]: 0.536 µM | TGI [7]: 3.76 µM | GI50 [8]: 15.7 µM | TGI [8]: 32.2 µM
